Results published in PMC8129498, “Synthesis, Antitumor and Antiviral In Vitro Activities of New Benzotriazole-Dicarboxamide Derivatives” (Frontiers in Chemistry, 2021).

Row | Compound | melting point
1 | O=C(O)CCC(=O)Nc1ccc(Cn2nnc3ccccc32)cc1 | 193 to 195 °C
2 | O=C(O)CCCC(=O)Nc1ccc(Cn2nnc3ccccc32)cc1 | 152 to 154 °C
3 | O=C(O)CCCCC(=O)Nc1ccc(Cn2nnc3ccccc32)cc1 | 134 to 136 °C
4 | O=C(O)c1cccc(C(=O)Nc2ccc(Cn3nnc4ccccc43)cc2)n1 | 230 to 232 °C
5 | O=C(O)c1ccc(C(=O)Nc2ccc(Cn3nnc4ccccc43)cc2)s1 | > 300 °C
6 | Cc1cc2nnn(Cc3ccc(NC(=O)CCC(=O)O)cc3)c2cc1C | 218 to 220 °C
7 | Cc1cc2nnn(Cc3ccc(NC(=O)CCCC(=O)O)cc3)c2cc1C | 270 to 272 °C
8 | Cc1cc2nnn(Cc3ccc(NC(=O)CCCCC(=O)O)cc3)c2cc1C | 203 to 204 °C
9 | Cc1cc2nnn(Cc3ccc(NC(=O)/C=C/C(=O)O)cc3)c2cc1C | 256 to 258 °C
10 | Cc1cc2nnn(Cc3ccc(NC(=O)c4cccc(C(=O)O)n4)cc3)c2cc1C | 214 to 216 °C
11 | Cc1cc2nnn(Cc3ccc(NC(=O)c4ccc(C(=O)O)s4)cc3)c2cc1C | > 300 °C
12 | O=C(O)CCC(=O)Nc1ccc(Cn2nnc3cc(Cl)c(Cl)cc32)cc1 | 214 to 216 °C
13 | O=C(O)CCCC(=O)Nc1ccc(Cn2nnc3cc(Cl)c(Cl)cc32)cc1 | 173 to 175 °C
14 | O=C(O)CCCCC(=O)Nc1ccc(Cn2nnc3cc(Cl)c(Cl)cc32)cc1 | 228 to 230 °C

The remaining lines, values ahead:

Row | melting point | Compound
15 | > 300 °C | O=C(O)c1ccc(C(=O)Nc2ccc(Cn3nnc4ccccc43)cc2)cc1
16 | > 300 °C | Cc1cc2nnn(Cc3ccc(NC(=O)c4ccc(C(=O)O)cc4)cc3)c2cc1C
17 | 175 to 177 °C | O=C(O)c1cccc(C(=O)Nc2ccc(Cn3nnc4cc(Cl)c(Cl)cc43)cc2)n1
18 | 264 to 265 °C | O=C(CCC(=O)Nc1ccc(-n2nnc3cc(Cl)c(Cl)cc32)cc1)Nc1ccc(-n2nnc3cc(Cl)c(Cl)cc32)cc1
19 | 293 to 294 °C | O=C(CCCCC(=O)Nc1ccc(-n2nnc3cc(Cl)c(Cl)cc32)cc1)Nc1ccc(-n2nnc3cc(Cl)c(Cl)cc32)cc1
20 | 197 to 199 °C | O=C(Nc1ccc(-n2nnc3cc(Cl)c(Cl)cc32)cc1)c1ccc(C(=O)Nc2ccc(-n3nnc4cc(Cl)c(Cl)cc43)cc2)cc1
21 | > 300 °C | O=C(Nc1ccc(-n2nnc3cc(Cl)c(Cl)cc32)cc1)c1cccc(C(=O)Nc2ccc(-n3nnc4cc(Cl)c(Cl)cc43)cc2)n1
22 | 240 °C | O=C(O)c1cccc(C(=O)Nc2ccc(-n3nnc4cc(Cl)c(Cl)cc43)cc2)n1
23 | > 300 °C | O=C(Nc1ccc(-n2nc3cc(Cl)c(Cl)cc3n2)cc1)c1ccc(C(=O)Nc2ccc(-n3nc4cc(Cl)c(Cl)cc4n3)cc2)cc1
24 | > 300 °C | O=C(Nc1ccc(-n2nc3cc(Cl)c(Cl)cc3n2)cc1)c1cccc(C(=O)Nc2ccc(-n3nc4cc(Cl)c(Cl)cc4n3)cc2)n1
